Numbers after ± are expanded uncertainties.
Experiment: xn = mol fraction of the nth substance listed
Conditions: 101 kPa, Liquid; for speed of sound: Pulse-echo method; for viscosity: Capillary tube (Ostwald / Ubbelohde) method; for mass density: Vibrating tube method

CCCCCCCCCO [nonan-1-ol] + OCCO
Conditions | mass density [kg/m3] | speed of sound [m/s] | viscosity [mPa·s]
293.15 K, x2 = 0 | – | 1381.6 ± 1.6 | –
293.15 K, x2 = 0.1002 | – | 1383.9 ± 1.6 | –
293.15 K, x2 = 0.1979 | – | 1387.2 ± 1.5 | –
293.15 K, x2 = 0.2964 | – | 1391.9 ± 1.5 | –
293.15 K, x2 = 0.3641 | – | 1396.2 ± 1.5 | –
293.15 K, x2 = 0.4533 | – | 1403.7 ± 1.5 | –
293.15 K, x2 = 0.5432 | – | 1414.2 ± 1.4 | –
293.15 K, x2 = 0.6441 | – | 1431.5 ± 1.4 | –
293.15 K, x2 = 0.7517 | – | 1460.2 ± 1.5 | –
293.15 K, x2 = 0.9308 | – | 1571.1 ± 1.5 | –
298.15 K, x2 = 0 | 824.48 ± 0.25 | 1364.4 ± 1.6 | 9.494 ± 0.079
298.15 K, x2 = 0.1002 | 833.41 ± 0.24 | 1366.8 ± 1.6 | 9.581 ± 0.079
298.15 K, x2 = 0.1979 | 843.96 ± 0.23 | 1370.3 ± 1.5 | 10.01 ± 0.081
298.15 K, x2 = 0.2964 | 856.32 ± 0.22 | 1375.2 ± 1.5 | 10.67 ± 0.084
298.15 K, x2 = 0.3641 | 866.44 ± 0.21 | 1379.8 ± 1.5 | 11.26 ± 0.088
298.15 K, x2 = 0.4533 | 881.71 ± 0.21 | 1387.6 ± 1.4 | 12.22 ± 0.094
298.15 K, x2 = 0.5432 | 900.44 ± 0.2 | 1398.4 ± 1.4 | 13.41 ± 0.1
298.15 K, x2 = 0.6441 | 926.38 ± 0.19 | 1416.2 ± 1.4 | 15.09 ± 0.11
298.15 K, x2 = 0.701 | 944.22 ± 0.18 | – | –
298.15 K, x2 = 0.7517 | 963.14 ± 0.21 | 1445.4 ± 1.4 | 17.32 ± 0.12
298.15 K, x2 = 0.9308 | 1055.33 ± 0.29 | 1558.5 ± 1.4 | 19.28 ± 0.13
303.15 K, x2 = 0 | 821.05 ± 0.25 | 1347.4 ± 1.6 | 7.994 ± 0.068
303.15 K, x2 = 0.1002 | 830.02 ± 0.23 | 1350 ± 1.6 | 8.014 ± 0.067
303.15 K, x2 = 0.1979 | 840.61 ± 0.22 | 1353.6 ± 1.5 | 8.359 ± 0.069
303.15 K, x2 = 0.2964 | 852.92 ± 0.21 | 1358.8 ± 1.5 | 8.897 ± 0.072
303.15 K, x2 = 0.3641 | 863 ± 0.21 | 1363.5 ± 1.5 | 9.37 ± 0.075
303.15 K, x2 = 0.4533 | 878.3 ± 0.2 | 1371.5 ± 1.4 | 10.14 ± 0.08
303.15 K, x2 = 0.5432 | 896.94 ± 0.19 | 1382.7 ± 1.4 | 11.09 ± 0.086
303.15 K, x2 = 0.6441 | 922.82 ± 0.18 | 1400.8 ± 1.4 | 12.4 ± 0.095
303.15 K, x2 = 0.701 | 940.61 ± 0.17 | – | –
303.15 K, x2 = 0.7517 | 959.57 ± 0.17 | 1430.7 ± 1.4 | 14.12 ± 0.11
303.15 K, x2 = 0.9308 | 1051.63 ± 0.17 | 1545.7 ± 1.4 | 15.47 ± 0.12
308.15 K, x2 = 0 | 817.57 ± 0.25 | 1330.5 ± 1.6 | 6.713 ± 0.057
308.15 K, x2 = 0.1002 | 826.58 ± 0.24 | 1333.2 ± 1.6 | 6.801 ± 0.057
308.15 K, x2 = 0.1979 | 837.18 ± 0.22 | 1337.1 ± 1.5 | 7.044 ± 0.058
308.15 K, x2 = 0.2964 | 849.41 ± 0.21 | 1342.4 ± 1.5 | 7.487 ± 0.06
308.15 K, x2 = 0.3641 | 859.49 ± 0.21 | 1347.3 ± 1.5 | 7.872 ± 0.063
308.15 K, x2 = 0.4533 | 874.74 ± 0.2 | 1355.6 ± 1.4 | 8.493 ± 0.067
308.15 K, x2 = 0.5432 | 893.37 ± 0.19 | 1367.1 ± 1.4 | 9.257 ± 0.071
308.15 K, x2 = 0.6441 | 919.23 ± 0.18 | 1385.6 ± 1.4 | 10.31 ± 0.078
308.15 K, x2 = 0.701 | 937.01 ± 0.17 | – | –
308.15 K, x2 = 0.7517 | 956 ± 0.17 | 1416.1 ± 1.4 | 11.66 ± 0.087
308.15 K, x2 = 0.9308 | 1048.12 ± 0.17 | 1532.9 ± 1.4 | 12.67 ± 0.094
313.15 K, x2 = 0 | 814.19 ± 0.25 | 1313.6 ± 1.6 | 5.657 ± 0.05
313.15 K, x2 = 0.1002 | 823.15 ± 0.23 | 1316.5 ± 1.5 | 5.782 ± 0.049
313.15 K, x2 = 0.1979 | 833.73 ± 0.22 | 1320.6 ± 1.5 | 5.984 ± 0.05
313.15 K, x2 = 0.2964 | 845.93 ± 0.21 | 1326.3 ± 1.5 | 6.352 ± 0.052
313.15 K, x2 = 0.3641 | 855.98 ± 0.2 | 1331.3 ± 1.5 | 6.667 ± 0.054
313.15 K, x2 = 0.4533 | 871.22 ± 0.19 | 1339.8 ± 1.4 | 7.176 ± 0.057
313.15 K, x2 = 0.5432 | 889.84 ± 0.18 | 1351.6 ± 1.4 | 7.796 ± 0.061
313.15 K, x2 = 0.6441 | 915.68 ± 0.17 | 1370.4 ± 1.4 | 8.65 ± 0.067
313.15 K, x2 = 0.701 | 933.39 ± 0.17 | – | –
313.15 K, x2 = 0.7517 | 952.37 ± 0.16 | 1401.6 ± 1.3 | 9.722 ± 0.077
313.15 K, x2 = 0.9308 | 1044.52 ± 0.18 | 1520.3 ± 1.3 | 10.47 ± 0.086
